Legend:
3T3-L1 cells = experiment: Induction of adipocyte differentiation (amount of triglyceride biosynthesis); assay type: cell-based; conditions: Mus musculus, 3T3-L1, X=(S−N)/(P−N) of amount of triglyceride, P=insulin positive control, read-out: Action for Induction of Differentiation
Method: Induction of adipocyte differentiation was carried out by partially modifying the above-mentioned method of Rubin C. S. et al. In addition, as a test compound, a compound prepared in Examples mentioned above or a commercially available compound was used. 3T3-L1 cells (ATCC CCL-92.1) were suspended in a 10% fetal bovine serum (manufactured by Bio Whittaker)-containing Dulbecco's modified Eagle's medium (manufactured by Sigma, D6046) containing 200 μM ascorbic acid so as to have a density of 4×10^3 cells/mL, and the suspension was put in each well of a 12-well microtiter plate in an amount of 2 ml per well. The cells were cultured at 37° C. for 7 days in the presence of 5% carbon dioxide gas. On the seventh day, the medium was exchanged with a 10% fetal bovine serum (manufactured by Bio Whittaker)-containing Dulbecco's modified Eagle's medium containing 200 μM ascorbic acid and 0.25 μM dexamethasone, and a test compound dissolved in dimethyl sulfoxide in a concentration shown in each of Tables 16 to 19 was added to each well. Here, there were set a group with addition of 4 μL of an aqueous solution containing 5 mg/mL insulin (manufactured by TAKARA BIO INC.) as a positive control, and a group with addition of dimethyl sulfoxide as a negative control. After 45 hours, the medium was exchanged with a 10% fetal bovine serum-containing Dulbecco's modified Eagle's medium containing 200 μM ascorbic acid. A test compound, 2 μL of an aqueous solution containing 5 mg/mL insulin as a positive control, or dimethyl sulfoxide as a negative control was put to each well in the same concentration. The cells were cultured for additional 7 days. In addition, the medium was exchanged on after 2 days and after 5 days, and at that time, a test compound, 2 μL of an aqueous solution containing 5 mg/mL insulin as a positive control, or dimethyl sulfoxide as a negative control was put to each well in the same concentration.
The amount of triglyceride in the adipocytes was determined as an index of induction of differentiation into mature adipocytes, and also, as the evaluation of insulin-mimetic action.
After the termination of the culture, the medium was removed, and the cells were washed twice with a phosphate buffered saline. One milliliter of a solvent of hexane:isopropanol=3:2 was added to the cells. The mixture was allowed to stand at room temperature for 30 minutes, and thereafter the supernatant was collected. The procedures were repeated again, and 2 mL of the supernatant was concentrated to dryness. The precipitate was dissolved in 100 μL of isopropanol, and the amount of triglyceride contained in 10 μL of the solution was determined using a triglyceride E-test (manufactured by Wako Pure Chemical Industries, Ltd., code 432-40201). In addition, all the determinations were carried out twice. The action for induction of differentiation was calculated by the following calculation formula, and shown by four ranks of +++, ++, + and +/−. • S: Amount of triglyceride in the presence of a test compound; • N: Amount of triglyceride in the negative control; and • P: Amount of triglyceride in the positive control; X=(S−N)/(P−N) (Judgment of Action for Induction of Differentiation)

[1] = test system: mature adipocytes (3T3-L1 cells); experiment: Enhancing action on glucose uptake (2-deoxyglucose) into mature adipocytes; assay type: cell-based; conditions: Mus musculus, 3T3-L1, X=(S−N)/(P−N) of 2-deoxyglucose uptake, P=insulin 1 μg/mL, read-out: Enhancing Action on Glucose Uptake
Method: The induction of differentation into nature adipocytes was carried out by partially modifying the above-mentioned method of Rubin C. S. et al. 3T3-L1 cells (ATCC CCL-92.1) were suspended in a 10% fetal bovine serum (manufactured by Bio Whittaker)-containing Dulbecco's modified Eagle's medium (manufactured by Sigma, D6046) containing 200 μM ascorbic acid so as to have a density of 4×10^3 cells/mL, and the suspension was put in each well of a collagen type I-coated 12-well plate (Iwaki Glass Co., Ltd., code 4815-010) in an amount of 2 mL per well. The cells were cultured at 37° C. for 7 days in the presence of 5% carbon dioxide gas. On the seventh day, the medium was exchanged with 2 mL of a 10% fetal bovine serum (manufactured by Bio Whittaker)-containing Dulbecco's modified Eagle's medium containing 200 μM ascorbic acid, 0.25 μM dexamethasone, 10 μg/mL insulin (manufactured by TAKARA BIO INC.) and 0.5 mM 3-isobutyl-1-methylxanthine (manufactured by nacalai tesque, 19624-86). After 45 hours, the medium was exchanged with 2 mL of a 10% fetal bovine serum-containing Dulbecco's modified Eagle's medium containing 200 μM ascorbic acid and 5 μg/mL insulin. The medium was exchanged on after 2 days and 5 days, and the cells were cultured for 7 days, to give mature adipocytes.
As the evaluation of the enhancing action on glucose uptake, and also as the evaluation of the insulin-mimetic action, the amount of 2-deoxyglucose uptake into mature adipocytes during the stimulation of the test compound in the adipocytes was determined. As a test compound, a compound prepared in the Examples mentioned above or a commercially available compound was used.
After the termination of the culture, the medium was removed, and the cells were washed twice with a 0.1% (w/v) bovine serum albumin (manufactured by Sigma, A8022)-containing Dulbecco's modified Eagle's medium. Thereafter, 1 mL of the same medium containing a test compound in a concentration shown in each of Tables 20 to 23 was put to each well. The cells were cultured overnight at 37° C. in the presence of 5% carbon dioxide gas. Here, a group without containing the test compound was set as a negative control. After the overnight culture, the cells were washed twice with a HEPES buffer (140 mM NaCl, 5 mM KCl, 2.5 mM MgSO4, 1 mM CaCl2, 20 mM HEPES-Na (pH 7.4)). The amount 0.9 mL of the buffer containing a test compound in the same concentration was added to each well. The cells were cultured at 37° C. for 75 minutes. During the culture, as a positive control, there was set a group with addition of insulin to the well without addition of a test compound at a point 45 minutes passed so as to have a final concentration of 1 μg/mL. Thereafter, 100 μL of a HEPES buffer containing 0.5 μCi/mL 2-deoxy-[1,2-^3H(N)]-glucose (manufactured by PerkinElmer Life Sciences Inc., NET549A) and 1 mM 2-deoxyglucose (manufactured by nacalai tesque, 10722-11) was added thereto. The cells were cultured at 37° C. for additional 10 minutes. After the termination of the culture, the supernatant was removed, and the cells were washed three times with a phosphate buffer cooled to 4° C. Thereafter, 0.5 mL of a 1% Nonidet P-40-containing phosphate buffer was added to lyse the cells, whereby 2-deoxy-[1,2-^3H(N)]-glucose subjected to uptake into the cells was eluted. The radioactivity was determined with a liquid scintillation counter LS6500 (manufactured by Beckmann) using 25 μL of the supernatant with Ultima Gold (manufactured by PerkinElmer Life Sciences Inc., 6013329) as a scintillation cocktail. The enhancing action on glucose uptake was calculated by the following calculation formula, and shown by four ranks of +++, ++, + and +/−. • S: Amount of 2-deoxyglucose uptake in the presence of a test compound; • N: Amount of 2-deoxyglucose uptake in the negative control; and • P: Amount of 2-deoxyglucose uptake in the positive control; X=(S−N)/(P−N) (Judgment of Enhancing Action for 2-Deoxyglucose Uptake)

Compound	activation at 1 µM (3T3-L1 cells) [%]	activation at 3 µM (3T3-L1 cells) [%]	activation at 10 µM (3T3-L1 cells) [%]	activation at 10 µM [1] [%]	activation at 30 µM [1] [%]	activation at 4 µM (3T3-L1 cells) [%]	activation at 13 µM (3T3-L1 cells) [%]	activation at 3 µM [1] [%]	activation at 30 µM (3T3-L1 cells) [%]
COc1ccc(C(=O)/C=C/c2ccco2)c(O)c1CC=C(C)C [Compound (FUR-1), 3-(2-furyl)-1-(2-hydroxy-3-prenyl-4-methoxyphenyl)-2-propen-1-one]	15 to 30	30 to 60	> 100	15 to 30	60 to 100				
COc1ccc(C(=O)/C=C/c2ccc(O)cc2)c(O)c1 [Compound (C020), 4,2′-dihydroxy-4′-methoxychalcone]				30 to 60	60 to 100	30 to 60	60 to 100		
COc1ccc(C(=O)/C=C/c2cccc([N+](=O)[O-])c2)c(O)c1CC=C(C)C [Compound (C076), 3-nitro-2′-hydroxy-3′-prenyl-4′-methoxychalcone]	60 to 100	> 100	> 100	30 to 60	> 100			15 to 30	
COc1ccc(/C=C/C(=O)c2c(OC)cc(OC)c(CC=C(C)C)c2O)cc1 [Compound (C046), 4,4′,6′-trimethoxy-2′-hydroxy-3′-prenylchalcone]		60 to 100	> 100	> 100	> 100			15 to 30	
CC(C)=CCC/C(C)=C/Cc1c(O)ccc(C(=O)/C=C/c2ccc(Cl)cc2)c1O [Compound (C074), 4-chloro-2′,4′-dihydroxy-3′-geranylchalcone]		15 to 30	30 to 60		30 to 60				
CC(=O)Oc1ccc(/C=C/C(=O)c2ccc(OC(C)=O)c(C/C=C(\C)CCC=C(C)C)c2OC(C)=O)cc1 [Compound (C061), 4,2′,4′-triacetoxy-3′-geranylchalcone]		60 to 100	> 100		30 to 60				
CC(C)=CCc1c(O)ccc(C(=O)/C=C/c2ccc(Cl)cc2)c1O [Compound (C075), 4-chloro-2′,4′-dihydroxy-3′-prenylchalcone]		15 to 30	30 to 60	15 to 30	30 to 60				
COc1cc(O)c(C(=O)/C=C/c2ccc(O)cc2)cc1CC=C(C)C [Bavachalcone, 4,2′-Dihydroxy-4′-methoxy-5′-prenylchalcone]				30 to 60	> 100	15 to 30	30 to 60		
COc1ccc(/C=C/C(=O)c2ccc(OC)c(CC=C(C)C)c2O)cc1 [Compound (C035), 4,4′-dimethoxy-2′-hydroxy-3′-prenylchalcone]		60 to 100	> 100	30 to 60	60 to 100				
COc1ccc(C(=O)/C=C/c2ccc(Cl)cc2)c(OC(C)=O)c1C/C=C(\C)CCC=C(C)C [Compound (C080), 4-chloro-2′-acetoxy-3′-geranyl-4′-methoxychalcone]	60 to 100	> 100	> 100	30 to 60	60 to 100				
CCOc1ccc(C(C)=O)c(O)c1C/C=C(\C)CCC=C(C)C [Compound (C048), 2′-hydroxy-3′-geranyl-4′-ethoxyacetophenone]			> 100	30 to 60	> 100			15 to 30	> 100
CC(=O)c1ccc(OCC=C(C)C)cc1C [Compound (C059), 2′-methyl-4′-prenyloxyacetophenone]		15 to 30	30 to 60	15 to 30	30 to 60				> 100
COc1ccc(C(=O)/C=C/c2ccc(O)cc2)c(OCc2ccccc2)c1CC=C(C)C [Compound (C077), 4-hydroxy-2′-benzyloxy-3′-prenyl-4′-methoxychalcone]		30 to 60		30 to 60	30 to 60				
CCOc1ccc(C(=O)/C=C/c2ccc(O)cc2)c(O)c1CC=C(C)C [Compound (C049), 4,2′-dihydroxy-3′-prenyl-4′-ethoxychalcone]		15 to 30	15 to 30	30 to 60	> 100				
COc1ccc(/C=C/C(=O)c2ccc(OC)c(CC=C(C)C)c2O)c(O)c1CC=C(C)C [Compound (C072), 2,2′-dihydroxy-3,3′-diprenyl-4,4′-dimethoxychalcone]		> 100	> 100		30 to 60				
